# Test results: patent publication US11319303B2 (WIGEN BIOMEDICINE TECHNOLOGY (SHANGHAI) CO., LTD., priority 2017, dated 2022)
# Target: LC3B (Homo sapiens, UniProt Q9GZQ8)
# Test: Fluorescence Polarization (FP) Assay: displacement of FITC-labeled peptide from GST-LC3B
# Type: binding
# Conditions: not given
# Protocol: The compounds of the present invention for regulating the autophagy-related protein LC3B were tested by Fluorescence Polarization (FP) Assay.
# Fluorescence Polarization (FP) Assay Test
row,Structure (SMILES),IC50 [µM]
1,"CN(C)CCNC=C1C(=O)CC(c2cccc(F)c2F)CC1=O (centres unmarked) [Compound 304, 5-(2,3-difluorophenyl)-2-(((2-(dimethylamino)ethyl)amino)methylene) cyclohexane-1,3-dione]",< 3

# Same assay, conditions: Fluorescence Polarization assay; GST-LC3B 180 nM, FITC-labeled peptide 18 nM, 25° C.; read-out: IC50
row,Structure (SMILES),IC50 [µM]
1,"CN(C)C=C1C(=O)CC(c2cccs2)CC1=O (centres unmarked) [Compound 264, 2-((dimethylamino)methylene)-5-(thiophen-2-yl)cyclohexane-1,3-dione]",< 3
2,"CN(C)C=C1C(=O)CC(c2ccc(Cl)nc2)CC1=O (centres unmarked) [Compound 266, 5-(6-chloropyridin-3-yl)-2-((dimethylamino)methylene) cyclohexane-1,3-dione]",3 to 15
3,"CN(C)C=C1C(=O)CC(c2cccc(C(=O)NCCc3ccccc3)c2)CC1=O (centres unmarked) [Compound 267, 3-(4-((dimethylamino)methylene)-3,5-dioxocyclohexyl)-N-phenethylbenzamide]",3 to 15
4,"CN(C)C=C1C(=O)CC(c2cccc(C(=O)NCCCCc3ccccc3)c2)CC1=O (centres unmarked) [Compound 269, 3-(4-((dimethylamino)methylene)-3,5-dioxocyclohexyl)-N-(4-phenylbutyl)-benzamide]",3 to 15
5,"CN(C)C=C1C(=O)CC(c2cccc3[nH]ccc23)CC1=O (centres unmarked) [Compound 271, 2-((dimethylamino)methylene)-5-(1H-indol-4-yl)cyclohexane-1,3-dione]",< 3
6,"CN(C)C=C1C(=O)CC(Cc2ccccc2)CC1=O (centres unmarked) [Compound 272, 5-benzyl-2-((dimethylamino)methylene) cyclohexane-1,3-dione]",3 to 15
7,"CC(C)CNC(=O)C1CC(=O)C(=CN(C)C)C(=O)C1 (centres unmarked) [Compound 273, 4-((dimethylamino)methylene)-N-isobutyl-3,5-dioxocyclohexane-1-carboxamide]",15 to 100
8,"CCCNC(=O)C1CC(=O)C(=CN(C)C)C(=O)C1 (centres unmarked) [Compound 274, 4-((dimethylamino)methylene)-3,5-dioxo-N-propylcyclohexane-1-carboxamide]",15 to 100
9,"CC(C)CC1CC(=O)C(=CN(C)C)C(=O)C1 (centres unmarked) [Compound 276, 2-((dimethylamino)methylene)-5-isobutylcyclo-hexane-1,3-dione]",15 to 100
10,"CN(C)C=C1C(=O)CC(c2cccc3ccccc23)CC1=O (centres unmarked) [Compound 277, 2-((dimethylamino)methylene)-5-(naphthalen-1-yl)cyclohexane-1,3-dione]",< 3
11,"CN(C)C=C1C(=O)CC(c2ccc3ccccc3c2)CC1=O (centres unmarked) [Compound 278, 2-((dimethylamino)methylene)-5-(naphthalen-2-yl)cyclohexane-1,3-dione]",< 3
12,"CCCCn1cccc1C1CC(=O)C(=CN(C)C)C(=O)C1 (centres unmarked) [Compound 279, 5-(1-butyl-1H-pyrrol-2-yl)-2-((dimethylamino)methylene) cyclohexane-1,3-dione]",3 to 15
13,"CN(C)C=C1C(=O)CC(c2cccc3c2CCCC3)CC1=O (centres unmarked) [Compound 280, 2-((dimethylamino)methylene)-5-(5,6,7,8-tetrahydro-naphthalen-1-yl)cyclohexane-1,3-dione]",< 3
14,"CN(C)C=C1C(=O)CC(c2ccc3[nH]ccc3c2)CC1=O (centres unmarked) [Compound 281, 2-((dimethylamino)methylene)-5-(1H-indol-5-yl)cyclohexane-1,3-dione]",< 3
15,"CN(C)C=C1C(=O)CC(c2csc3ccccc23)CC1=O (centres unmarked) [Compound 282, 5-(benzo[b]thiophen-3-yl)-2-((dimethylamino)methylene) cyclohexane-1,3-dione]",< 3
16,"CN(C)C=C1C(=O)CC(c2c[nH]c3ccccc23)CC1=O (centres unmarked) [Compound 283, 2-((dimethylamino)methylene)-5-(1H-indol-3-yl)cyclohexane-1,3-dione]",< 3
17,"CC(C)Cn1cccc1C1CC(=O)C(=CN(C)C)C(=O)C1 (centres unmarked) [Compound 284, 2-((dimethylamino)methylene)-5-(1-isobutyl-1H-pyrrol-2-yl)cyclohexane-1,3-dione]",3 to 15
18,"CN(C)C=C1C(=O)CC(c2ccnc3ccccc23)CC1=O (centres unmarked) [Compound 285, 2-((dimethylamino)methylene)-5-(quinolin-4-yl)cyclohexane-1,3-dione]",3 to 15
19,"CN(C)C=C1C(=O)CC(c2n[nH]c3ccccc23)CC1=O (centres unmarked) [Compound 286, 2-((dimethylamino)methylene)-5-(1H-indazol-3-yl)cyclohexane-1,3-dione]",< 3
20,"CN(C)C=C1C(=O)CC(c2cncc3ccccc23)CC1=O (centres unmarked) [Compound 287, 2-((dimethylamino)methylene)-5-(isoquinolin-4-yl)cyclohexane-1,3-dione]",3 to 15
21,"CN(C)C=C1C(=O)CC(c2cccn2Cc2ccccc2)CC1=O (centres unmarked) [Compound 288, 5-(1-benzyl-1H-pyrrol-2-yl)-2-((dimethylamino)methylene) cyclohexane-1,3-dione]",3 to 15
22,"Cc1ccccc1Cc1ccccc1C1CC(=O)C(=CN(C)C)C(=O)C1 (centres unmarked) [Compound 289, 2-((dimethylamino)methylene)-5-(2-(2-methylbenzyl)phenyl) cyclohexane-1,3-dione]",3 to 15

row,Structure (SMILES),IC50 [µM]
1,"Cc1cccc(Cc2ccccc2C2CC(=O)C(=CN(C)C)C(=O)C2)c1 (centres unmarked) [Compound 290, 2-((dimethylamino)methylene)-5-(2-(3-methylbenzyl)phenyl) cyclohexane-1,3-dione]",3 to 15
2,"Cc1ccc(Cc2ccccc2C2CC(=O)C(=CN(C)C)C(=O)C2)cc1 (centres unmarked) [Compound 291, 2-((dimethylamino)methylene)-5-(2-(4-methylbenzyl)phenyl) cyclohexane-1,3-dione]",3 to 15
3,"Cc1ccc2c(C3CC(=O)C(=CN(C)C)C(=O)C3)c[nH]c2c1 (centres unmarked) [Compound 293, 2-((dimethylamino)methylene)-5-(6-methyl-1H-indol-3-yl)cyclohexane-1,3-dione]",3 to 15
4,"CN(C)C=C1C(=O)CC(c2cn(C)c3ccccc23)CC1=O (centres unmarked) [Compound 294, 2-((dimethylamino)methylene)-5-(1-methyl-1H-indol-3-yl)cyclohexane-1,3-dione]",< 3
5,"CN(C)C=C1C(=O)CC(c2cccc3c2ccn3C)CC1=O (centres unmarked) [Compound 295, 2-((dimethylamino)methylene)-5-(1-methyl-1H-indol-4-yl)cyclohexane-1,3-dione]",3 to 15
6,"Cc1[nH]c2ccccc2c1C1CC(=O)C(=CN(C)C)C(=O)C1 (centres unmarked) [Compound 296, 2-((dimethylamino)methylene)-5-(2-methyl-1H-indol-3-yl)cyclohexane-1,3-dione]",< 3
7,"Cc1cccc2c(C3CC(=O)C(=CN(C)C)C(=O)C3)c[nH]c12 (centres unmarked) [Compound 297, 2-((dimethylamino)methylene)-5-(7-methyl-1H-indol-3-yl)cyclohexane-1,3-dione]",< 3
8,"Cc1cccc2[nH]cc(C3CC(=O)C(=CN(C)C)C(=O)C3)c12 (centres unmarked) [Compound 298, 2-((dimethylamino)methylene)-5-(4-methyl-1H-indol-3-yl)cyclohexane-1,3-dione]",< 3
9,"Cc1ccc2[nH]cc(C3CC(=O)C(=CN(C)C)C(=O)C3)c2c1 (centres unmarked) [Compound 299, 2-((dimethylamino)methylene)-5-(5-methyl-1H-indol-3-yl)cyclohexane-1,3-dione]",3 to 15
10,"CN(C)CCNC=C1C(=O)CC(c2ccccc2I)CC1=O (centres unmarked) [Compound 300, 2-(((2-(dimethylamino)ethyl)amino)methylene)-5-(2-iodophenyl) cyclohexane-1,3-dione]",< 3
11,"CN(C)CCNC=C1C(=O)CC(c2ccc(F)cc2F)CC1=O (centres unmarked) [Compound 301, 5-(2,4-difluorophenyl)-2-(((2-(dimethylamino)ethyl)amino)methylene) cyclohexane-1,3-dione]",< 3
12,"CN(C)CCNC=C1C(=O)CC(c2cc(F)ccc2F)CC1=O (centres unmarked) [Compound 302, 5-(2,5-difluorophenyl)-2-(((2-(dimethylamino)ethyl)amino)methylene) cyclohexane-1,3-dione]",< 3
13,"CN(C)CCNC=C1C(=O)CC(c2ccc(F)cc2Br)CC1=O (centres unmarked) [Compound 305, 5-(2-bromo-4-fluorophenyl)-2-(((2-(dimethylamino)ethyl)amino)methylene) cyclohexane-1,3-dione]",< 3
14,"CN(C)CCNC=C1C(=O)CC(c2c(F)cccc2Br)CC1=O (centres unmarked) [Compound 306, 5-(2-bromo-6-fluorophenyl)-2-(((2-(dimethylamino)ethyl)amino)methylene) cyclohexane-1,3-dione]",< 3
15,"O=C1CC(c2ccccc2)CC(=O)C1=CNC(=O)c1ccccn1 (centres unmarked) [Compound 307, N-((2,6-dioxo-4-phenylcyclo-hexylidene)methyl) picolinamide]",3 to 15
16,"CN(C)CCNC=C1C(=O)CC(c2ccccc2O)CC1=O (centres unmarked) [Compound 308, 2-(((2-(dimethylamino)ethyl)amino)methylene)-5-(2-hydroxyphenyl) cyclohexane-1,3-dione]",3 to 15
17,"COc1ccccc1C1CC(=O)C(=CNCCN(C)C)C(=O)C1 (centres unmarked) [Compound 310, 2-(((2-(dimethylamino)ethyl)amino)methylene)-5-(2-methoxyphenyl) cyclohexane-1,3-dione]",< 3
18,"CN(C)CCNC=C1C(=O)CC(c2cccc([N+](=O)[O-])c2)CC1=O (centres unmarked) [Compound 311, 2-(((2-(dimethylamino)ethyl)amino)methylene)-5-(3-nitrophenyl) cyclohexane-1,3-dione]",< 3
19,"O=C1CC(c2ccc3cc[nH]c3c2)CC(=O)C1=CNCCN1CCN(CCO)CC1 (centres unmarked) [Compound 315, 2-(((2-(4-(2-hydroxyethyl)piperazin-1-yl)ethyl)amino)methylene)-5-(1H-indol-6-yl)cyclohexane-1,3-dione]",< 3
20,"O=C1Nc2ccc(C(F)(F)F)cc2C(=O)/C1=C/NCCN1CCN(CCO)CC1 [Compound 317, 3-(((2-(4-(2-hydroxyethyl)piperazin-1-yl)ethyl)amino)methylene)-6-(trifluoromethyl) quinoline-2,4(1H,3H)-dione]",3 to 15
21,"O=C1Nc2c(cccc2[N+](=O)[O-])C(=O)/C1=C/NCCN1CCN(CCO)CC1 [Compound 318, 3-(((2-(4-(2-hydroxyethyl)piperazin-1-yl)ethyl)amino)methylene)-8-nitroquinoline-2,4(1H,3H)-dione]",< 3
